Source: patent publication US9567643B2, “Compositions and methods for treating cancers” (Aptose Biosciences Inc., priority 2013, dated 2017)
Counter-ions that a name gives are not always drawn.

Tests used:
[1] = system: HL-60; assay: HL-60 AML xenograft model; assay type: in vivo, athymic nude mice; conditions: HL-60 xenograft, 3 cycles, FIG. 17
Method: The human AML cell line HL-60 was implanted subcutaneously into athymic nude mice. Tumor-bearing mice were treated with LOR-253 HCl alone or in combination with azacitidine, with azacitidine alone, or with a negative control vehicle. The detailed treatment conditions are as follows. • Group 1: Negative control group. LOR-253 HCl control vehicle, 2×/day, 3 cycles of 2 consecutive days, 5 days between cycles, i.v., plus 1% D-mannitol every four days by s.c. injection • Group 2: Azacitidine (in 1% D-mannitol) at 10 mg/kg 1× on days 1, 4, 8, 11, 15 and 18 by subcutaneous (s.c.) injection • Group 3: LOR-253 HCl at 15 mg/kg bid for 3 cycles, each cycle is 2 consecutive days of dosing per week with 5 days of non-dosing, i.v., n=9 (2T-5B) • Group 4: LOR-253 HCl at 15 mg/kg 2×/day (bid) for 3 cycles, each cycle is 1 day of dosing per week with 6 days of non-dosing, i.v., n=9 (1T-6B) • Group 5: Combination of LOR-253 (2T-5B) and azacitidine. LOR-253 HCl at 15 mg/kg bid for 3 cycles, each cycle is 2 consecutive days of dosing per week with 5 days of non-dosing, i.v., n=9 (2T-5B) plus azacitidine at 10 mg/kg 1× every four days by s.c. injection • Group 6: Combination of LOR-253 (1T-6B) and azacitidine. […]
Tumor sizes were measured three times per week.

[2] = system: KG-1; assay: KG-1 AML xenograft model; assay type: in vivo, mice; conditions: KG-1 xenograft; 15 mg/kg-iv, bid, 2T/wk; FIG. 20
Method: Xenograft model mice for AML cell line KG-1 was generated with the same method as in Examples 14 and 15, and were treated with LOR-253 HCl or control according to the following regime.
LOR-253—15 mg/kg-iv, bid, 2T/wk—Day 1

[3] = system: Kasumi-1; assay: Kasumi-1 AML xenograft model; assay type: in vivo, athymic nude mice; conditions: Kasumi-1 xenograft; 30 mg/kg (15 mg/kg twice per day) i.v., two consecutive days per week, four weeks; p=0.028 by Student's t-test; FIG. 15
Method: (§1) The anti-tumor activity of LOR-253 HCl was evaluated in another in vivo animal model of human AML. The human AML cell line Kasumi-1 was implanted subcutaneously into athymic nude mice. Some tumor-bearing mice were treated with LOR-253 HCl at 30 mg/kg (15 mg/kg twice per day) for two consecutive days per week for four weeks (the “LOR-253 treatment group”). LOR-253 was administered by intravenous (i.v.) bolus injection as the hydrochloric salt form (LOR-253-HCl) formulated in 20% Polyethylene Glycol 400, 10% Propylene Glycol, and 10% Solutol HS in 60% water.
(§2) The major endpoint was to observe for tumor growth inhibition after treatment with LOR-253 HCl and compare the anti-tumor effects of different dosing schedules. Tumor sizes were measured three times per week from day 10 after the tumor cell inoculation. Tumors were measured in three dimensions using calipers and the volume was expressed in millimeters cubed using the formula: V=0.5a×b×c, where a, b, and c are the length, width, and height of the tumor, respectively. Mean tumor volumes+/−standard error (SE) were calculated from each measurement and then plotted in a standard graph to compare the anti-tumor efficacy of drug treatment to that of control (FIG. 15). Toxicity was assessed by clinical observations and by measurement of mouse body weight in grams twice per week over the course of the study. […]

[4] = Toxicity assessment in Kasumi-1 tumor-bearing mice; conditions: 15 mg/kg twice per day i.v., two days per week, four weeks
Method: as §1, §2

[5] = system: advanced or metastatic solid tumours; assay: Open-label phase 1 dose-escalating study; assay type: in vivo
Method: Phase I: This was an open-label, phase 1 study to determine the maximum tolerated dose (MTD) or appropriate target dose if MTD not reached to identify the recommended phase 2 dose of LOR-253 HCl in patients with advanced or metastatic solid tumours. In the first set of doses, LOR-253 HCl was given in ascending doses until the maximum administered dose or appropriate target dose is reached. In the other set of doses, LOR-253 HCl was given in ascending doses starting from 20 mg/m2 until the maximum administered dose or appropriate target dose is reached. Patient as treated on LOR-253 HCl for 2 cycles for the evaluation. • Other Name: No other names are used. • Study Type: Interventional • Study Design: • Endpoint Classification: Safety Study • Intervention Model: Single Group Assignment • Masking: Open Label • Primary Purpose: Treatment • Official Title: Open-Label, Phase 1 Study of LOR-253 HCl in Patients With Advanced or Metastatic Solid Tumours Primary Outcome Measures: • To determine the maximum tolerated dose (MTD) or appropriate target dose if MTD not reached to identify the recommended phase 2 dose of LOR-253 HCl in patients with advanced or metastatic solid tumours. [Time Frame: 8 weeks] Secondary Outcome Measures: • To characterize the safety profile of LOR-253 HCl when administered to patients with advanced or metastatic solid tumours. [Time Frame: 8 weeks] Inclusion Criteria: • 1. Male or female 18 years of age or older. • 2. Histologically confirmed diagnosis of solid tumor for which no effective therapy is available or that is unresponsive to conventional therapy. • 3. Meet laboratory parameter requirements at study entry. Exclusion Criteria: • 1. Chemotherapy, radiotherapy, biologic therapy, immunotherapy or any other investigational drugs within 21 days of beginning study treatment with LOR-253 HCl. • 2. A hematologic malignancy. • 3. A history of brain or other central nervous system metastases. • 4. Have a presence of a significant infection. • 5. Clinically significant autoimmune disease. • 6. Uncontrolled intercurrent illness. • 7. With iron or copper overload syndromes. • 8. Pregnancy or breast feeding.

[6] = system: THP-1; assay: THP-1 AML xenograft model; assay type: in vivo, mice; conditions: THP-1 xenograft; Group-2: i.v. Days 1, 2, 8, 9, 15, 16 and IP Days 22-25, 29, 30; FIG. 21
Method: The anti-tumor activity of LOR-253 HCl, as a single agent and in combination with azacitidine, was evaluated in yet another in vivo animal model of human AML. Xenograft model mice for AML cell line THP-1 was generated with the same method as in Examples 14 and 15, and were treated with LOR-253 HCl alone or in combination with azacitidine, with azacitidine alone, or with a negative control vehicle, and tumor sizes were measured as described in Examples 14 and 15. The detailed treatment conditions are shown as follows, and the results are shown in FIG. 21. • Group 1 Control: received i.v. treatments with LOR-253 control vehicle (CV) on Days 1, 2, 8, 9, 15 &16; received subcutaneous (SC) treatments with Azacitidine control vehicle on Days 1, 4, 8, 11, 15, 18, 22, 25, 29 &32; and received intraperitoneal (IP) treatments with LOR-253-CV on Days 22, 23, 24, 25, 29&30. • Group-2—LOR-253: received i.v. treatments on Days 1, 2, 8, 9, 15 &16; received IP treatments on Days 22, 23, 24, 25, 29&30 • Group-3—Azacitidine: received SC treatments on Days 1, 4, 8, 11, 15, 18, 22, 25, 29 &32. • Group-4—Combination: received i.v. treatments with LOR-253 on Days 1, 2, 8, 9, 15 &16; received IP treatments with LOR-253 on Days 22, 23, 24 &25; and received SC-treatment with Azacitidine on Days 1, 4, 8, 11, 15, 18, 22 &25

[7] = Repeat-dose toxicity study, cardiovascular effects; assay type: in vivo; conditions: dogs, highest dose tested (data not shown)
[8] = GLP blood compatibility studies
[9] = target: hERG tail current density (Homo sapiens, UniProt Q12809); assay: hERG tail current inhibition; assay type: cell-based; conditions: preclinical testing
[10] = Pharmacokinetics, serum level after i.v. bolus; assay type: in vivo; conditions: CD-1 nude mice; i.v. bolus of LOR-253 HCl at 1, 5, 15 mg/kg; FIG. 10
Method: To study the pharmacokinetic (PK) […], CD-1 nude mice were treated by i.v. bolus injections of LOR-253 HCl at 1, 5, and 15 mg/kg. The serum level of LOR-253 was measured.

[11] = system: CYP450 enzymes; assay: CYP450 inhibition; assay type: in vitro ADME; conditions: preclinical testing
[12] = patients with advanced solid tumors, phase I

Sequence of hERG tail current density (Q12809 whole entry): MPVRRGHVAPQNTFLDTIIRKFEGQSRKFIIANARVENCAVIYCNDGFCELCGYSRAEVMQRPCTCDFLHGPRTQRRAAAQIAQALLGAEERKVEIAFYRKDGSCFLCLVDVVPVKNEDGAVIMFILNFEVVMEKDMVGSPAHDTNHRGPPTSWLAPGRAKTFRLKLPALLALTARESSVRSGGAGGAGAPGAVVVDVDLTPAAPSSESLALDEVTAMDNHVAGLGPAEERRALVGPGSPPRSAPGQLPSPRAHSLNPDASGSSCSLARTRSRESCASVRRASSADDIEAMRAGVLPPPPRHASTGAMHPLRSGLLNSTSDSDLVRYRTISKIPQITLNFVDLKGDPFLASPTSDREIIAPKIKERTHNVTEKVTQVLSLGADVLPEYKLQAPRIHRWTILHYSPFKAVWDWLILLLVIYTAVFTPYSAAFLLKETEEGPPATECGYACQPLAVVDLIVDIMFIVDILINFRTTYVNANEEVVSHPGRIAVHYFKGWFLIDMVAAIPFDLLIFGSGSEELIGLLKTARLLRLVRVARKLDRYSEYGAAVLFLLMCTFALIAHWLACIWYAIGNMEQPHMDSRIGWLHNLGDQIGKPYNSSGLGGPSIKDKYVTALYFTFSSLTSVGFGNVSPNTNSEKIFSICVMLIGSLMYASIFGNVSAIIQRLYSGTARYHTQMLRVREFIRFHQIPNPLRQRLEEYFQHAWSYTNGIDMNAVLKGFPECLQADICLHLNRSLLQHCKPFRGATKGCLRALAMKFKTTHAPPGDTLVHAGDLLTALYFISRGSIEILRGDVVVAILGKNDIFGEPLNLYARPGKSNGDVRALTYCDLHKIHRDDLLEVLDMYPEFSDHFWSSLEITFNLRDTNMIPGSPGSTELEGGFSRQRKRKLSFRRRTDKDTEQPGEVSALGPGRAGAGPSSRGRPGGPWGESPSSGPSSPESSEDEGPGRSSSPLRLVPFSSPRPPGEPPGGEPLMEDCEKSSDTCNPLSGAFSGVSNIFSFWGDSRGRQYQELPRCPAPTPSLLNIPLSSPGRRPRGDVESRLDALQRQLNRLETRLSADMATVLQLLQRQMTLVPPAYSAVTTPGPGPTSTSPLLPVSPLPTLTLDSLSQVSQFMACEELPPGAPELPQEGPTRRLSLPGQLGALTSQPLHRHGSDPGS

Compound | inhibition of tumor growth, single agent ([1]; Group 3: 15 mg/kg twice per day i.v., two consecutive days per week (2T-5B)) | inhibition of tumor growth, single agent ([1]; Group 4: 15 mg/kg twice per day i.v., one day per week (1T-6B)) | tumor growth inhibition, single agent [2] | tumor growth inhibition vs vehicle control [3] | overt signs of toxicity (clinical observations) [4] | body weight ([4]; FIG. 16) | safety profile ([5]; N=27 patients across 7 dose levels, phase I) | tumor response in single patient ([5]; patient with NSCLC (poorly differentiated adenocarcinoma) and extensive metastases refractory to prior therapies, FIG. 12) | RECIST partial response [5, 12] | most common AE and SAE [5, 12] | Stable Disease, share of evaluable patients ([5]; patients with advanced solid tumors, phase I, 7 dose levels) [%] | inhibition of tumor growth, single agent [6] | cardiovascular effects [7] | blood compatibility of IV formulation [8] | inhibition of hERG tail current density [9] | serum level of LOR-253 [10] | inhibition of CYP450 enzymes [11]
Cc1[nH]c2ccc(F)cc2c1-c1nc2c3cccnc3c3ncccc3c2[nH]1 [LOR-253 HCl] | approximately the same extent as or slightly more than azacitidine alone | approximately the same extent as or slightly more than azacitidine alone | significant tumor growth inhibition | significant tumor growth inhibition | did not show other overt signs of toxicity | did not show body weight loss | Excellent Safety Profile | Tumor shrinkage | No RECIST PR | Fatigue and 1 case of reversible hypophosphatemia | 41 | about the same extent as or slightly more than azacitidine alone | – | – | – | – | –
Cc1[nH]c2ccc(F)cc2c1-c1nc2c3cccnc3c3ncccc3c2[nH]1 [LOR-253] | – | – | – | – | – | – | – | – | – | – | – | – | no treatment-related cardiovascular effects | confirmed the suitability of IV formulation | no significant inhibition | dose related increase | no significant inhibition
